In ChEMBL document CHEMBL1201862, “PubChem BioAssay data set” (2004):
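Briefly, cells in 96-well plates were exposed to five compound concentrations for 48 h, and endpoints were estimated by linear interpolation. GI50 marks 50% less growth.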 Active and inactive are the calls of the source. Cut-off read from the data, not from the text of the source: active = GI50 up to about 1.1 µM and inactive = higher.

Columns and labels:
Experiment in all cases: inhibition of tumour cell growth, NCI panel, 48 h
786-0 = system: 786-0
A498 = system: A498
CAKI-1 = system: CAKI-1
EKVX = system: EKVX
HCT-15 = system: HCT-15
HL-60 = system: HL-60
HOP-62 = system: HOP-62
K562 = system: K562
NCI-H23 = system: NCI-H23
OVCAR-4 = system: OVCAR-4
SF-268 = system: SF-268
SF-295 = system: SF-295
SNB-78 = system: SNB-78
UACC-257 = system: UACC-257
UACC-62 = system: UACC-62
UO-31 = system: UO-31
BT-549 = system: BT-549
HOP-92 = system: HOP-92
Hs-578T = system: Hs-578T
PC-3 = system: PC-3

Compound	GI50 (786-0)	GI50 (A498)	GI50 (CAKI-1)	GI50 (EKVX)	GI50 (HCT-15)	GI50 (HL-60)	GI50 (HOP-62)	GI50 (K562)	GI50 (NCI-H23)	GI50 (OVCAR-4)	GI50 (SF-268)	GI50 (SF-295)	GI50 (SNB-78)	GI50 (UACC-257)	GI50 (UACC-62)	GI50 (UO-31)	GI50 (BT-549)	GI50 (HOP-92)	GI50 (Hs-578T)	GI50 (PC-3)
O=C(/C=C/c1ccccc1O)c1cccs1	> 100 µM (inactive)	11.9 µM (inactive)	> 100 µM (inactive)	> 100 µM (inactive)	> 100 µM	> 100 µM (inactive)	> 100 µM (inactive)	> 100 µM (inactive)	> 100 µM (inactive)	> 100 µM (inactive)	> 100 µM (inactive)	> 100 µM (inactive)	> 100 µM (inactive)	> 100 µM (inactive)	> 100 µM (inactive)	> 100 µM (inactive)	–	–	–	–
C/C(=C\c1ccccc1)C(O)C(=O)c1nc2ccc(Cl)cc2nc1O (stereo not given)	> 100 µM (inactive)	> 100 µM (inactive)	> 100 µM (inactive)	91.2 µM (inactive)	> 100 µM	27 µM (inactive)	> 100 µM (inactive)	55.5 µM (inactive)	> 100 µM (inactive)	26 µM (inactive)	> 100 µM (inactive)	> 100 µM (inactive)	> 100 µM (inactive)	> 100 µM (inactive)	> 100 µM (inactive)	> 100 µM (inactive)	–	–	–	–
O=C(Nc1ccc2c(c1)oc(=O)c1ccccc12)C(Cl)Cl	> 100 µM (inactive)	> 100 µM (inactive)	> 100 µM (inactive)	85.5 µM (inactive)	71.1 µM	12.2 µM (inactive)	62.1 µM (inactive)	51.2 µM (inactive)	> 100 µM (inactive)	> 10 µM (inactive)	> 100 µM (inactive)	> 100 µM (inactive)	–	> 100 µM (inactive)	36.6 µM (inactive)	> 100 µM (inactive)	> 100 µM (inactive)	> 100 µM (inactive)	> 100 µM (inactive)	76.4 µM (inactive)
COc1nn(Cc2ccccn2)c2ccc([N+](=O)[O-])cc12	> 100 µM (inactive)	30.3 µM (inactive)	51.2 µM (inactive)	56.1 µM (inactive)	62.7 µM	20.2 µM (inactive)	> 100 µM (inactive)	31 µM (inactive)	> 100 µM (inactive)	> 100 µM (inactive)	> 100 µM (inactive)	> 100 µM (inactive)	–	94 µM (inactive)	38.3 µM (inactive)	32.4 µM (inactive)	44.4 µM (inactive)	20.7 µM (inactive)	19.4 µM (inactive)	> 100 µM (inactive)
CN(NC1OC(CO)C(O)C(O)C1O)c1ccccc1 (stereo not given)	> 100 µM (inactive)	–	> 100 µM (inactive)	–	> 100 µM	> 100 µM (inactive)	> 100 µM (inactive)	> 100 µM (inactive)	> 100 µM (inactive)	> 100 µM (inactive)	> 100 µM (inactive)	> 100 µM (inactive)	> 100 µM (inactive)	> 100 µM (inactive)	> 100 µM (inactive)	–	–	> 100 µM (inactive)	–	–
O=C1c2ccccc2C(=O)N1CCn1nc(-c2ccccc2)cc(-c2ccccc2)c1=O	> 100 µM (inactive)	–	–	51.5 µM (inactive)	38.2 µM	8.51 µM (inactive)	> 100 µM (inactive)	18.2 µM (inactive)	43.2 µM (inactive)	42.1 µM (inactive)	> 100 µM (inactive)	56 µM (inactive)	> 100 µM (inactive)	> 100 µM (inactive)	51.2 µM (inactive)	18.9 µM (inactive)	–	37.8 µM (inactive)	–	–
O=C(O)C1Cc2[nH]c3ccccc3c2C2CCCC12 (stereo not given)	> 100 µM (inactive)	> 100 µM (inactive)	> 100 µM (inactive)	> 100 µM (inactive)	> 100 µM	–	–	> 100 µM (inactive)	> 100 µM (inactive)	> 100 µM (inactive)	> 100 µM (inactive)	> 100 µM (inactive)	> 100 µM (inactive)	> 100 µM (inactive)	> 100 µM (inactive)	> 100 µM (inactive)	–	> 100 µM (inactive)	–	–
COc1ccc(C)cc1C1CCC(=O)O1 (stereo not given)	> 100 µM (inactive)	> 100 µM (inactive)	–	> 100 µM (inactive)	> 100 µM	> 100 µM (inactive)	> 100 µM (inactive)	> 100 µM (inactive)	> 100 µM (inactive)	–	–	> 100 µM (inactive)	> 100 µM (inactive)	> 100 µM (inactive)	> 100 µM (inactive)	> 100 µM (inactive)	–	–	–	–
OC1CN2CCS[C@H]2C(O)C1O (stereo not given in full)	> 100 µM (inactive)	> 100 µM (inactive)	> 100 µM (inactive)	> 100 µM (inactive)	> 100 µM	> 100 µM (inactive)	> 100 µM (inactive)	> 100 µM (inactive)	> 100 µM (inactive)	> 100 µM (inactive)	> 100 µM (inactive)	> 100 µM (inactive)	–	> 100 µM (inactive)	> 100 µM (inactive)	> 100 µM (inactive)	> 100 µM (inactive)	> 100 µM (inactive)	> 100 µM (inactive)	> 100 µM (inactive)
Cc1ccc(Nc2nc(=S)[nH]c3[nH]ncc23)cc1	> 100 µM (inactive)	37 µM (inactive)	58.1 µM (inactive)	> 100 µM (inactive)	47.6 µM	48.8 µM (inactive)	> 100 µM (inactive)	49 µM (inactive)	59.7 µM (inactive)	90.4 µM (inactive)	> 100 µM (inactive)	71.3 µM (inactive)	–	84.5 µM (inactive)	37.7 µM (inactive)	78 µM (inactive)	> 100 µM (inactive)	> 100 µM (inactive)	77.1 µM (inactive)	51.2 µM (inactive)
CCOC(=O)C(C)(C)C(O)C(C)C (stereo not given)	> 100 µM (inactive)	> 100 µM (inactive)	> 100 µM (inactive)	> 100 µM (inactive)	> 100 µM	> 100 µM (inactive)	> 100 µM (inactive)	> 100 µM (inactive)	> 100 µM (inactive)	> 100 µM (inactive)	> 100 µM (inactive)	> 100 µM (inactive)	–	> 100 µM (inactive)	> 100 µM (inactive)	> 100 µM (inactive)	> 100 µM (inactive)	> 100 µM (inactive)	> 100 µM (inactive)	> 100 µM (inactive)
CC(=O)NNc1nc(C)c(C(=O)NNC(=O)C(=O)Nc2ccc(Cl)cc2)s1	> 100 µM (inactive)	–	–	> 100 µM (inactive)	> 100 µM	> 100 µM (inactive)	> 100 µM (inactive)	46.2 µM (inactive)	> 100 µM (inactive)	47 µM (inactive)	49.7 µM (inactive)	> 100 µM (inactive)	> 100 µM (inactive)	> 100 µM (inactive)	> 100 µM (inactive)	> 100 µM (inactive)	–	39.5 µM (inactive)	–	–
CN(CCCNC(=O)c1nn(-c2ccccc2)c2c1ccc1ccccc12)CCCNC(=O)c1nn(-c2ccccc2)c2c1ccc1ccccc12	2.01 µM (inactive)	1.65 µM (inactive)	1.61 µM (inactive)	1.81 µM (inactive)	1.84 µM	0.221 µM (active)	1.86 µM (inactive)	1.29 µM (inactive)	1.82 µM (inactive)	1.82 µM (inactive)	1.98 µM (inactive)	1.87 µM (inactive)	–	1.98 µM (inactive)	1.6 µM (inactive)	1.52 µM (inactive)	1.68 µM (inactive)	1.83 µM (inactive)	2.58 µM (inactive)	1.52 µM (inactive)
C1CCN2CC3CONC3C2C1 (stereo not given)	> 100 µM (inactive)	> 100 µM (inactive)	> 100 µM (inactive)	> 100 µM (inactive)	> 100 µM	> 100 µM (inactive)	> 100 µM (inactive)	> 100 µM (inactive)	> 100 µM (inactive)	> 100 µM (inactive)	> 100 µM (inactive)	> 100 µM (inactive)	> 100 µM (inactive)	> 100 µM (inactive)	> 100 µM (inactive)	> 100 µM (inactive)	–	–	–	–
c1ccc(C2C3=C(c4ccccc4CC3)N3c4cc5c(cc4=NC34CCCCC24)Nc2ccccc2N=5)cc1 (stereo not given)	7.14 µM (inactive)	7.38 µM (inactive)	> 10 µM (inactive)	> 10 µM (inactive)	8.39 µM	3.77 µM (inactive)	> 10 µM (inactive)	5.27 µM (inactive)	9.2 µM (inactive)	5.79 µM (inactive)	> 10 µM (inactive)	> 10 µM (inactive)	–	> 10 µM (inactive)	> 10 µM (inactive)	6.55 µM (inactive)	> 10 µM (inactive)	7.64 µM (inactive)	> 10 µM (inactive)	6.92 µM (inactive)
c1ccc(N2N=C(c3ccco3)CC2c2ccco2)cc1 (stereo not given)	> 100 µM (inactive)	–	–	98.9 µM (inactive)	69.8 µM	25.2 µM (inactive)	> 100 µM (inactive)	34.3 µM (inactive)	66.5 µM (inactive)	> 100 µM (inactive)	> 100 µM (inactive)	57.1 µM (inactive)	> 100 µM (inactive)	–	91.6 µM (inactive)	28.6 µM (inactive)	–	–	–	–
Cc1ccc2nc(-c3ccc(C(C)(C)C)cc3)oc(=O)c2c1	25.1 µM (inactive)	24.8 µM (inactive)	19.4 µM (inactive)	20 µM (inactive)	16.4 µM	16.6 µM (inactive)	27.9 µM (inactive)	17.3 µM (inactive)	19.6 µM (inactive)	20.7 µM (inactive)	24.5 µM (inactive)	17.8 µM (inactive)	–	18.9 µM (inactive)	17.5 µM (inactive)	26.6 µM (inactive)	24.4 µM (inactive)	29 µM (inactive)	27.7 µM (inactive)	20.7 µM (inactive)
